test system: PDCD1; assay: NGS editing of PDCD1 by dgRNA in HEK cells stably expressing Cas9; format: cell-based, human; settings: at least 3 experiments;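 also: dgRNA lipofected into Cas9-expressing HEK cells, lysed after 24 h, target amplicon sequenced, editing = reads carrying insertions or deletions as percent of all reads including wild type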
Excerpt: Transfection of Cas9GFP-expressing HEK293 cells (HEK-293_Cas9GFP) was used for primary screening of target specific crRNAs. […] Selected crRNAs were chemically synthesized and delivered in a 96 well format. HEK-293-Cas9GFP cells were transfected with target crRNAs comprising a flagpole region of SEQ ID NO: 6607 in a 1:1 ratio with stock trRNA of SEQ ID NO: 6660. The transfection was mediated using lipofection technology according to manufacturer's protocol (DharmaFECT Duo, GE LifeSciences; or RNAiMax, LifeTechnologies). Transfected cells were lysed 24 h following lipofection and editing (e.g., cleavage) was detected within lysates with the T7E1 assay and/or next generation sequencing (NGS; below).
PCR primers were first designed around the target site, and the genomic area of interest PCR amplified. Additional PCR was performed according to manufacturer's protocols (Illumina) to add the necessary chemistry for sequencing. The amplicons were then sequenced on an Illumina MiSeq instrument. The reads were then aligned to the human reference genome (e.g., hg38) after eliminating those having low quality scores. From the resulting files containing the reads mapped to the reference genome (BAM files), reads which overlap the target region of interest were selected and the number of wild type reads versus the number of reads which contain an insertion or deletion was calculated. The editing percentage was then defined as the total number of reads with insertions or deletions over the total number of reads, including wild type. To determine the pattern of insertions and/or deletions that resulted from the edit, the aligned reads with indels were selected and the number of a reads with a given indel were summed.
Editing of CRISPR systems containing dgRNA molecules comprising targeting domains to sequences of PDCD1 were tested for editing in HEK (gRNA delivered to cells stably expressing Cas9) and CD3+ T cells (gRNA and Cas9 delivered as RNP) according to the methods described herein.
All mean editing % are as measured by NGS and are based on at least 3 experiments.

Compared with “CR000835: dgRNA targeting domain to PDCD1 (guide GCCCUGGCCAGUCGUCUGGG; targeting domain within dual guide RNA, chemistry not given here, further chemistry not given here; listed as Homo sapiens)”, “CR000836: dgRNA targeting domain to PDCD1 (guide CACCGCCCAGACGACUGGCC; targeting domain within dual guide RNA, chemistry not given here, further chemistry not given here; listed as Homo sapiens)” is lower in “HEK (NGS) % Editing Mean” value: 69% for the first, 5% for the second.

Going from “CR000840: dgRNA targeting domain to PDCD1 (guide GGGCGGUGCUACAACUGGGC; targeting domain within dual guide RNA, chemistry not given here, further chemistry not given here; listed as Homo sapiens)” to “CR000841: dgRNA targeting domain to PDCD1 (guide CGGUGCUACAACUGGGCUGG; targeting domain within dual guide RNA, chemistry not given here, further chemistry not given here; listed as Homo sapiens)”, the “HEK (NGS) % Editing Mean” value falls from 59% to 19%.

Compared with “CR000842: dgRNA targeting domain to PDCD1 (guide CACCUACCUAAGAACCAUCC; targeting domain within dual guide RNA, chemistry not given here, further chemistry not given here; listed as Homo sapiens)”, “CR000843: dgRNA targeting domain to PDCD1 (guide GAGAAGGUGGGGGGGUUCCA; targeting domain within dual guide RNA, chemistry not given here, further chemistry not given here; listed as Homo sapiens)” is lower in “HEK (NGS) % Editing Mean” value: 40% for the first, 8% for the second.

Compared with “CR000844: dgRNA targeting domain to PDCD1 (guide CGGUCACCACGAGCAGGGCU; targeting domain within dual guide RNA, chemistry not given here, further chemistry not given here; listed as Homo sapiens)”, “CR000845: dgRNA targeting domain to PDCD1 (guide UCGGUCACCACGAGCAGGGC; targeting domain within dual guide RNA, chemistry not given here, further chemistry not given here; listed as Homo sapiens)” is lower in “HEK (NGS) % Editing Mean” value: 25% for the first, 21% for the second.

Going from “CR000846: dgRNA targeting domain to PDCD1 (guide GCCCUGCUCGUGGUGACCGA; targeting domain within dual guide RNA, chemistry not given here, further chemistry not given here; listed as Homo sapiens)” to “CR000847: dgRNA targeting domain to PDCD1 (guide CCCUUCGGUCACCACGAGCA; targeting domain within dual guide RNA, chemistry not given here, further chemistry not given here; listed as Homo sapiens)”, the “HEK (NGS) % Editing Mean” value rises from 46% to 77%.

First: CR000848: dgRNA targeting domain to PDCD1 (guide CCCUGCUCGUGGUGACCGAA; targeting domain within dual guide RNA, chemistry not given here, further chemistry not given here; listed as Homo sapiens)
Second: CR000849: dgRNA targeting domain to PDCD1 (guide CCCCUUCGGUCACCACGAGC; targeting domain within dual guide RNA, chemistry not given here, further chemistry not given here; listed as Homo sapiens)
The “HEK (NGS) % Editing Mean” value of the first is higher: 65% for the first, 29% for the second.

Going from “CR000850: gRNA targeting domain to PDCD1, CCUGCUCGUGGUGACCGAAG (SEQ ID NO: 5746) (targeting domain within guide RNA, chemistry not given here, further chemistry not given here; listed as Homo sapiens)” to “CR000851: dgRNA targeting domain to PDCD1 (guide GAAGGUGGCGUUGUCCCCUU; targeting domain within dual guide RNA, chemistry not given here, further chemistry not given here; listed as Homo sapiens)”, the “HEK (NGS) % Editing Mean” value falls from 55% to 4%.

Going from “CR000852: dgRNA targeting domain to PDCD1 (guide GUUGGAGAAGCUGCAGGUGA; targeting domain within dual guide RNA, chemistry not given here, further chemistry not given here; listed as Homo sapiens)” to “CR000853: gRNA targeting domain to PDCD1, CACGAAGCUCUCCGAUGUGU (SEQ ID NO: 5749) (targeting domain within guide RNA, chemistry not given here, further chemistry not given here; listed as Homo sapiens)”, the “HEK (NGS) % Editing Mean” value falls from 72% to 33%.

Compared with “CR000854: dgRNA targeting domain to PDCD1 (guide CGGAGAGCUUCGUGCUAAAC; targeting domain within dual guide RNA, chemistry not given here, further chemistry not given here; listed as Homo sapiens)”, “CR000855: dgRNA targeting domain to PDCD1 (guide UCUGGUUGCUGGGGCUCAUG; targeting domain within dual guide RNA, chemistry not given here, further chemistry not given here; listed as Homo sapiens)” is higher in “HEK (NGS) % Editing Mean” value: 24% for the first, 61% for the second.

Going from “CR000857: dgRNA targeting domain to PDCD1 (guide AGCUUGUCCGUCUGGUUGCU; targeting domain within dual guide RNA, chemistry not given here, further chemistry not given here; listed as Homo sapiens)” to “CR000858: dgRNA targeting domain to PDCD1 (guide CAGCUUGUCCGUCUGGUUGC; targeting domain within dual guide RNA, chemistry not given here, further chemistry not given here; listed as Homo sapiens)”, the “HEK (NGS) % Editing Mean” value rises from 1% to 16%.

Compared with “CR000863: dgRNA targeting domain to PDCD1 (guide CCGGGCUGGCUGCGGUCCUC; targeting domain within dual guide RNA, chemistry not given here, further chemistry not given here; listed as Homo sapiens)”, “CR000864: dgRNA targeting domain to PDCD1 (guide CCCGAGGACCGCAGCCAGCC; targeting domain within dual guide RNA, chemistry not given here, further chemistry not given here; listed as Homo sapiens)” is lower in “HEK (NGS) % Editing Mean” value: 40% for the first, 7% for the second.

“CR000865: dgRNA targeting domain to PDCD1 (guide GCCGGGCUGGCUGCGGUCCU; targeting domain within dual guide RNA, chemistry not given here, further chemistry not given here; listed as Homo sapiens)” and “CR000866: dgRNA targeting domain to PDCD1 (guide CGGAAGCGGCAGUCCUGGCC; targeting domain within dual guide RNA, chemistry not given here, further chemistry not given here; listed as Homo sapiens)” are the same in “HEK (NGS) % Editing Mean” value: 4% for the first, 4% for the second.

First: CR000867: dgRNA targeting domain to PDCD1 (guide ACGGAAGCGGCAGUCCUGGC; targeting domain within dual guide RNA, chemistry not given here, further chemistry not given here; listed as Homo sapiens)
Second: CR000868: gRNA targeting domain to PDCD1, UGACACGGAAGCGGCAGUCC (SEQ ID NO: 5764) (targeting domain within guide RNA, chemistry not given here, further chemistry not given here; listed as Homo sapiens)
The “HEK (NGS) % Editing Mean” value of the first is lower: 24% for the first, 47% for the second.

Compared with “CR000869: dgRNA targeting domain to PDCD1 (guide GCAGUUGUGUGACACGGAAG; targeting domain within dual guide RNA, chemistry not given here, further chemistry not given here; listed as Homo sapiens)”, “CR000870: dgRNA targeting domain to PDCD1 (guide CGUGUCACACAACUGCCCAA; targeting domain within dual guide RNA, chemistry not given here, further chemistry not given here; listed as Homo sapiens)” is higher in “HEK (NGS) % Editing Mean” value: 55% for the first, 66% for the second.

First: CR000871: dgRNA targeting domain to PDCD1 (guide GUGUCACACAACUGCCCAAC; targeting domain within dual guide RNA, chemistry not given here, further chemistry not given here; listed as Homo sapiens)
Second: CR000872: dgRNA targeting domain to PDCD1 (guide AUGUGGAAGUCACGCCCGUU; targeting domain within dual guide RNA, chemistry not given here, further chemistry not given here; listed as Homo sapiens)
The “HEK (NGS) % Editing Mean” value of the first is higher: 57% for the first, 26% for the second.

In the case of “CR000874: dgRNA targeting domain to PDCD1 (guide GCGUGACUUCCACAUGAGCG; targeting domain within dual guide RNA, chemistry not given here, further chemistry not given here; listed as Homo sapiens)”, the “HEK (NGS) % Editing Mean” value was 47%.

From US12037583B2, “Compositions and methods for immunooncology” (Novartis AG, priority 2015, dated 2024)
